From patent US6747056B2, “K99-5041 substance and production thereof” (The Kitasato Institute, priority 2002, dated 2004)

How the values were obtained:
[1] = Grouping for acidic, neutral and basic; format: physicochemical
Solubility in solvent = format: physicochemical; conditions: for Solubility in solvent: organic solvents: methanol, ethanol, acetonitrile, ethyl acetate, chloroform and dimethyl sulfoxide
[2] = biological target: T1, Lanosterol synthase of human origin (Homo sapiens, UniProt P48449); assay: Inhibitory action against lanosterol synthase of human origin (cell-free extract of transformed yeast, [14C](3S)-2,3-oxidosqualene substrate); format: biochemical; conditions: human lanosterol synthase expressed in yeast GIL77, cell-free extract 1 mg protein; 37° C., 60 minutes; substrate 0.17-0.42 μM; read-out: 50% inhibition concentration (IC50) for lanosterol synthase activity
T1 construct: made in house; host or cells: lanosterol synthase deficient yeast GIL77 (GAPDH promoter); cell-free extract
T1 sequence (P48449 1-732): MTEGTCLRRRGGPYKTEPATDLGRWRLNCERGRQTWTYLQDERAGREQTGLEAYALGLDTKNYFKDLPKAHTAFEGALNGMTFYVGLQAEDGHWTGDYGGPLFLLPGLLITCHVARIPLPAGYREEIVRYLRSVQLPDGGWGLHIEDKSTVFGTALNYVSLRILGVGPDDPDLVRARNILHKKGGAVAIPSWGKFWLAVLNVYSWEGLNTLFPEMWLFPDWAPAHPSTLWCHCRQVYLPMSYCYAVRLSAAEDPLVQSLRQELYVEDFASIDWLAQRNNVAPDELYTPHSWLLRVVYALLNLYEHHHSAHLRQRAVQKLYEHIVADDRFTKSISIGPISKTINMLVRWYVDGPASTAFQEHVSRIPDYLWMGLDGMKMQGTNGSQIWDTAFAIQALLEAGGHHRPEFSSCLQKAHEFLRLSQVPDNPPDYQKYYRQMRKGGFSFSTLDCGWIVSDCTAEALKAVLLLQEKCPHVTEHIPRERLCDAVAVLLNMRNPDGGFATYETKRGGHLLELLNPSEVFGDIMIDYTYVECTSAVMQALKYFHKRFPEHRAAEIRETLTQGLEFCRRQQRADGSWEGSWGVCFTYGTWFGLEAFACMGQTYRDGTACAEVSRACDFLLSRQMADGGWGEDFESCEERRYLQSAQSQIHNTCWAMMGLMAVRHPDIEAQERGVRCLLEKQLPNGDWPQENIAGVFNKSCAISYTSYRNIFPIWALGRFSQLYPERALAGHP
Protocol: (1) Inhibitory Action Against Lanosterol Synthase of Human Origin
Enzyme origin used is as follows. […] The thus obtained cell-free extract derived from transformed yeast was used.
The above transformed yeast was homogenized in buffer A [0.1 M potassium-phosphate buffer solution (pH 7.4), 0.45 M sucrose, 1 mM EDTA and 1 mM dithiothreitol] in the presence of acid treated glass beads using Waring blender [Type 500ACD, Sakuma Seisakusho Co., Japan]. Supernatant obtained by centrifugation, 8600×g, was prepared to make protein concentration of 10 mg/ml by adding the buffer A hereinabove to prepare the cell-free extract.
Assay of lanosterol synthase was performed as follows.
Subsequently, 6% potassium hydroxide/ethanol was added thereto to terminate the reaction, and the mixture was saponificated by incubating at 37° C. for 10 minutes, added cyclohexane 2 ml and stirred well. The cyclohexane layer 1.6 ml was dried up, spotted on TLC plate [silica gel plate (with concentration zone), Merck Inc., U.S.A., thickness 0.25 mm: Art. […] Next, amounts of unreacted [^14C](3S)-2,3-oxidosqualene and generated [^14C]lanosterol were quantitatively assayed using the photo image analyzer BAS-1500 (Fuji Photo Film Co., Japan) to calculate inhibition rate of lanosterol synthesis.

Row | SMILES | Grouping for acidic, neutral and basic [1] | Solubility in solvent: organic solvents (Solubility in solvent) | Solubility in solvent: water (Solubility in solvent) | IC50 [2] [µM]
1 | CC1=NCC/C1=C\CCCCCCCCCCCCCC(C)C [K99-5041-C1x substance] | Weak basic substance | soluble | insoluble | 15
2 | CCCCCCCCCCCCCCCC/C=C1\CCN=C1C [K99-5041-C2x substance] | Weak basic substance | soluble | insoluble | 18
